# Experimental data from PubChem BioAssay (NCI).
#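 48-hour exposure; five concentrations; linearly interpolated endpoints. The concentration for 50% growth inhibition is given as GI50. TGI: concentration producing complete growth inhibition.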
# Assays:
# Assay in all cases: NCI tumour cell line growth inhibition, 48 h
# SNB-75 CNS = tested on: SNB-75 CNS
# NCI-H23 lung = tested on: NCI-H23 lung
# HCC-2998 colon = tested on: HCC-2998 colon
# MCF7 breast = tested on: MCF7 breast
# COLO 205 colon = tested on: COLO 205 colon
# KM12 colon = tested on: KM12 colon
# OVCAR-3 ovarian = tested on: OVCAR-3 ovarian
# MDA-MB-231 breast = tested on: MDA-MB-231 breast
# UACC-257 melanoma = tested on: UACC-257 melanoma
# SK-MEL-28 melanoma = tested on: SK-MEL-28 melanoma
# CAKI-1 renal = tested on: CAKI-1 renal
# MDA-MB-435 = tested on: MDA-MB-435
# TK-10 renal = tested on: TK-10 renal
# HCT-116 colon = tested on: HCT-116 colon
# UO-31 renal = tested on: UO-31 renal
# SW-620 colon = tested on: SW-620 colon
# RXF 393 renal = tested on: RXF 393 renal
# NCI-H522 lung = tested on: NCI-H522 lung
# DU-145 prostate = tested on: DU-145 prostate
# EKVX NSCLC = tested on: EKVX NSCLC
# SK-MEL-2 melanoma = tested on: SK-MEL-2 melanoma
# SF-268 CNS = tested on: SF-268 CNS
# SK-MEL-5 melanoma = tested on: SK-MEL-5 melanoma
# PC-3 prostate = tested on: PC-3 prostate
# NCI-H460 lung = tested on: NCI-H460 lung
# HT29 colon = tested on: HT29 colon
# HS 578T breast = tested on: HS 578T breast
# SF-295 CNS = tested on: SF-295 CNS
# M14 melanoma = tested on: M14 melanoma
# BT-549 breast = tested on: BT-549 breast
# SK-OV-3 ovarian = tested on: SK-OV-3 ovarian
# NCI/ADR-RES ovarian = tested on: NCI/ADR-RES ovarian
# HCT-15 colon = tested on: HCT-15 colon
# A549 NSCLC = tested on: A549 NSCLC
# T-47D breast = tested on: T-47D breast
# UACC-62 melanoma = tested on: UACC-62 melanoma
# HOP-62 NSCLC = tested on: HOP-62 NSCLC
# LOX IMVI melanoma = tested on: LOX IMVI melanoma
# RPMI-8226 leukemia = tested on: RPMI-8226 leukemia
# NCI-H226 lung = tested on: NCI-H226 lung
# IGROV1 ovarian = tested on: IGROV1 ovarian
# A498 renal = tested on: A498 renal
# OVCAR-5 ovarian = tested on: OVCAR-5 ovarian
# SN12C renal = tested on: SN12C renal
# 786-0 renal = tested on: 786-0 renal
# SF-539 CNS = tested on: SF-539 CNS
# ACHN renal = tested on: ACHN renal
# CCRF-CEM leukemia = tested on: CCRF-CEM leukemia
# U251 CNS = tested on: U251 CNS
# OVCAR-8 ovarian = tested on: OVCAR-8 ovarian
# MALME-3M melanoma = tested on: MALME-3M melanoma
# SNB-19 CNS = tested on: SNB-19 CNS
# K-562 leukemia = tested on: K-562 leukemia
# OVCAR-4 ovarian = tested on: OVCAR-4 ovarian
# SR leukemia = tested on: SR leukemia
structure (smiles),measurement,setting,value
O=C([O][Sn]([O]C(=O)c1ccccn1)([c]1ccccc1)[c]1ccccc1)c1ccccn1,GI50,SNB-75 CNS,2.54 µM
same,TGI,SNB-75 CNS,13 µM
same,GI50,NCI-H23 lung,3.08 µM
same,TGI,NCI-H23 lung,12.8 µM
same,GI50,HCC-2998 colon,13.1 µM
same,TGI,HCC-2998 colon,26 µM
same,GI50,MCF7 breast,2.67 µM
same,TGI,MCF7 breast,13.4 µM
same,GI50,COLO 205 colon,6.28 µM
same,TGI,COLO 205 colon,19.4 µM
same,GI50,KM12 colon,13.2 µM
same,TGI,KM12 colon,25.9 µM
same,GI50,OVCAR-3 ovarian,1.62 µM
same,TGI,OVCAR-3 ovarian,2.98 µM
same,GI50,MDA-MB-231 breast,5.29 µM
same,TGI,MDA-MB-231 breast,18.4 µM
same,GI50,UACC-257 melanoma,1.62 µM
same,TGI,UACC-257 melanoma,3.61 µM
same,GI50,SK-MEL-28 melanoma,3.4 µM
same,TGI,SK-MEL-28 melanoma,13.3 µM
same,GI50,CAKI-1 renal,1.61 µM
same,TGI,CAKI-1 renal,3.98 µM
same,GI50,MDA-MB-435,2.29 µM
same,TGI,MDA-MB-435,6.04 µM
same,GI50,TK-10 renal,2.63 µM
same,TGI,TK-10 renal,5.2 µM
same,GI50,HCT-116 colon,1.71 µM
same,TGI,HCT-116 colon,3.11 µM
same,GI50,UO-31 renal,2.05 µM
same,TGI,UO-31 renal,4.66 µM
same,GI50,SW-620 colon,1.13 µM
same,TGI,SW-620 colon,2.34 µM
same,GI50,RXF 393 renal,2.77 µM
same,TGI,RXF 393 renal,13 µM
same,GI50,NCI-H522 lung,0.14 µM
same,TGI,NCI-H522 lung,0.291 µM
same,GI50,DU-145 prostate,1.93 µM
same,TGI,DU-145 prostate,4.19 µM
same,GI50,EKVX NSCLC,13.7 µM
same,TGI,EKVX NSCLC,26.9 µM
same,GI50,SK-MEL-2 melanoma,2.57 µM
same,TGI,SK-MEL-2 melanoma,6.26 µM
same,GI50,SF-268 CNS,2.76 µM
same,TGI,SF-268 CNS,9.09 µM
same,GI50,SK-MEL-5 melanoma,12.1 µM
same,TGI,SK-MEL-5 melanoma,24.4 µM
same,GI50,PC-3 prostate,11.8 µM
same,TGI,PC-3 prostate,25.6 µM
same,GI50,NCI-H460 lung,12.2 µM
same,TGI,NCI-H460 lung,26.2 µM
same,GI50,HT29 colon,3.06 µM
same,TGI,HT29 colon,7.97 µM
same,GI50,HS 578T breast,2.32 µM
same,TGI,HS 578T breast,8.88 µM
same,GI50,SF-295 CNS,16.1 µM
same,TGI,SF-295 CNS,31.9 µM
same,GI50,M14 melanoma,4.56 µM
same,TGI,M14 melanoma,15.8 µM
same,GI50,BT-549 breast,8.25 µM
same,TGI,BT-549 breast,20.7 µM
same,GI50,SK-OV-3 ovarian,55.5 µM
same,TGI,SK-OV-3 ovarian,> 100 µM
same,GI50,NCI/ADR-RES ovarian,11.8 µM
same,TGI,NCI/ADR-RES ovarian,24.8 µM
same,GI50,HCT-15 colon,6.95 µM
same,TGI,HCT-15 colon,20.4 µM
same,GI50,A549 NSCLC,17.6 µM
same,TGI,A549 NSCLC,31.5 µM
same,GI50,T-47D breast,1.56 µM
same,TGI,T-47D breast,3.33 µM
same,GI50,UACC-62 melanoma,4.96 µM
same,TGI,UACC-62 melanoma,17.5 µM
same,GI50,HOP-62 NSCLC,16.5 µM
same,TGI,HOP-62 NSCLC,31.5 µM
same,GI50,LOX IMVI melanoma,1.4 µM
same,TGI,LOX IMVI melanoma,2.7 µM
same,GI50,RPMI-8226 leukemia,1.86 µM
same,TGI,RPMI-8226 leukemia,6.13 µM
same,GI50,NCI-H226 lung,14.7 µM
same,TGI,NCI-H226 lung,29.6 µM
same,GI50,IGROV1 ovarian,1.83 µM
same,TGI,IGROV1 ovarian,4.03 µM
same,GI50,A498 renal,1.87 µM
same,TGI,A498 renal,6.56 µM
same,GI50,OVCAR-5 ovarian,16.5 µM
same,TGI,OVCAR-5 ovarian,30.1 µM
same,GI50,SN12C renal,13.8 µM
same,TGI,SN12C renal,26.9 µM
same,GI50,786-0 renal,5.14 µM
same,TGI,786-0 renal,16.8 µM
same,GI50,SF-539 CNS,6.65 µM
same,TGI,SF-539 CNS,19.7 µM
same,GI50,ACHN renal,9.36 µM
same,TGI,ACHN renal,21.2 µM
same,GI50,CCRF-CEM leukemia,0.565 µM
same,TGI,CCRF-CEM leukemia,2.95 µM
same,GI50,U251 CNS,1.95 µM
same,TGI,U251 CNS,4.62 µM
same,GI50,OVCAR-8 ovarian,11.3 µM
same,TGI,OVCAR-8 ovarian,24 µM
same,GI50,MALME-3M melanoma,1.61 µM
same,TGI,MALME-3M melanoma,3.49 µM
same,GI50,SNB-19 CNS,15.5 µM
same,TGI,SNB-19 CNS,29.1 µM
same,GI50,K-562 leukemia,0.405 µM
same,TGI,K-562 leukemia,6.37 µM
same,GI50,OVCAR-4 ovarian,7.53 µM
same,TGI,OVCAR-4 ovarian,20.3 µM
same,GI50,SR leukemia,1.22 µM
same,TGI,SR leukemia,11.3 µM
